Measurements taken from EP0335164A2, “Ester derivatives of neopentanol, process for their preparation and their use as medicines” (Merckle GmbH, priority 1988, dated 1989).
Marks after values point to notes of the source that are not given here.

Experiments:
Pfotenoedem = assay: Rat paw oedema test after oral administration (anti-inflammatory effect); assay type: in vivo, Ratte
From the text: (§1) Die entzündungshemmende Wirkung wurde mit ausgewählten Verbindungen jedes Estertyps im Vergleich zum jeweiligen Standard im konventionellen Rattenpfotenoedemtest nach oraler Applikation untersucht. Die Ergebnisse sind in Tab. 3 zusammengefaßt. Weiterhin wurde mit einigen Verbindungen die entzündungshemmende Aktivität nach dermaler Applikation am Kaolin-induzierten Pfotenoedem der Ratte untersucht. Für den Test wurden die Substanzen in einer Mischung aus Ethanol/Aceton/Dimethylacetamid gelöst und im konstanten Volumen 30 Min. vor und 150 Min. nach Injektion von Kaolin (0,1 ml 10%-ige Suspension in Wasser) appliziert. Das Pfotenvolumen wurde 2, 4 und 6 Stunden nach Kaolininjektion gemessen. Die Ergebnisse sind in Tabelle 4 zusammengefaßt.

[1] = test system: Kaolin-induziertes Pfotenoedem; assay: Kaolin-induced rat paw oedema after dermal administration; assay type: in vivo, Ratte; details: 10 mg/kg standard acid, esters 12.3-13.2 mg/kg equivalent to 10 mg/kg acid, applied 30 min before and 150 min after kaolin; for % Hemmung 2h: 2 h after kaolin injection; for % Hemmung 4h: 4 h after kaolin injection; for % Hemmung 6h: 6 h after kaolin injection
From the text: as §1

Row | Structure (SMILES) | Hemmeffekt % (Pfotenoedem; 50 mg/kg) [%] | % Hemmung 2h [1] | % Hemmung 4h [1] | % Hemmung 6h [1] | also measured
1 | CC(C)Cc1ccc(C(C)C(=O)OCC(C)(C)C)cc1 (centres unmarked) [Beispiel 17] |  |  |  |  | Hemmeffekt % (Pfotenoedem; 25 mg/kg): 43%
2 | CC(C)(C)COC(=O)COC(=O)Cc1cn(-c2ccccc2)nc1-c1ccc(Cl)cc1 [Beispiel 22] |  |  |  |  | Hemmeffekt % (Pfotenoedem; 15 mg/kg): 46%
3 | CC(C)(CO)COC(=O)c1ccccc1Nc1cccc(C(F)(F)F)c1 [Beispiel 1, Flufenaminsäureneopentylglykolmonoester] | 55 | 2.2% | 23.7*** % | 36.8*** % | Hemmeffekt % (Pfotenoedem; 25 mg/kg): 38%
4 | CC(C)(C)COC(=O)Cc1cn(-c2ccccc2)nc1-c1ccc(Cl)cc1 [Beispiel 3, Lonazolacneopentylester] |  | 18.2* % | 31.6*** % | 34.3*** % | 
5 | CC(C(=O)OCC(C)(C)CO)c1cccc(C(=O)c2ccccc2)c1 (centres unmarked) [Beispiel 5] |  |  |  |  | Hemmeffekt % (Pfotenoedem; 10 mg/kg): 33%
6 | O=C(O)c1ccccc1Nc1cccc(C(F)(F)F)c1 [Flufenaminsäure, N-(α,α,α-Trifluor-m-tolyl)anthranilsäure, reference compound] | 33 | 0% | 19.4** % | 23.2** % | 
7 | O=C(O)Cc1cn(-c2ccccc2)nc1-c1ccc(Cl)cc1 [Lonazolac, 3-(4-Chlorphenyl)-1-phenyl-1H-pyrazol-4-essigsäure, reference compound] |  | 0% | 3.1% | 30.0*** % | Hemmeffekt % (Pfotenoedem; 25 mg/kg): 38%
8 | CC(C)(C)COC(=O)COC(=O)Cc1ccccc1Nc1c(Cl)cccc1Cl [Beispiel 24] | 33 |  |  |  | 
9 | CC(C)Cc1ccc(C(C)C(=O)OCC(C)(C)CO)cc1 (centres unmarked) [Beispiel 11] | 47 |  |  |  | 
10 | CC(C(=O)OCC(=O)OCC(C)(C)C)c1ccc(-c2ccccc2)c(F)c1 (centres unmarked) [Beispiel 4] |  |  |  |  | Hemmeffekt % (Pfotenoedem; 25 mg/kg): 33%
11 | O=C(O)Cc1ccccc1Nc1c(Cl)cccc1Cl [Diclofenac, 2-[(2,6-Dichlorphenyl)amino]-phenylessigsäure, reference compound] |  | 0% | 36.2*** % | 37.6*** % | Hemmeffekt % (Pfotenoedem; 100 mg/kg): 38%
12 | CC(C(=O)OCC(C)(C)C)c1ccc(C(=O)c2cccs2)cc1 (centres unmarked) [Beispiel 15] |  |  |  |  | Hemmeffekt % (Pfotenoedem; 5 mg/kg): 37%
13 | CC(C(=O)OCC(C)(C)C)c1ccc(-c2ccccc2)c(F)c1 (centres unmarked) [Beispiel 14] |  |  |  |  | Hemmeffekt % (Pfotenoedem; 1 mg/kg): 35%
14 | CC(C(=O)O)c1ccc(-c2ccccc2)c(F)c1 (centres unmarked) [Flurbiprofen, 2-(2-Fluor-4-biphenylyl)-propionsäure, reference compound] | 40 |  |  |  | 
15 | CC(C(=O)O)c1ccc(C(=O)c2cccs2)cc1 (centres unmarked) [Suprofen, 2-[4-(2-Thenoyl)phenyl]-propionsäure, reference compound] | 20 |  |  |  | 
16 | CC(C(=O)O)c1cccc(C(=O)c2ccccc2)c1 (centres unmarked) [Ketoprofen, 2-(3-Benzoylphenyl)-propionsäure, reference compound] |  |  |  |  | Hemmeffekt % (Pfotenoedem; 38 mg/kg): 44%
17 | CC(C)(C)COC(=O)Cc1ccccc1Nc1c(Cl)cccc1Cl [Beispiel 16] | 36 | 19.2* % | 40.1*** % | 43.2*** % | 
18 | CC(C)Cc1ccc(C(C)C(=O)O)cc1 (centres unmarked) [Ibuprofen, 2-(4-Isobutylphenyl)-propionsäure, reference compound] | 35 |  |  |  | 
19 | CC(C(=O)OCC(C)(C)CO)c1ccc(C(=O)c2cccs2)cc1 (centres unmarked) [Beispiel 9] |  |  |  |  | Hemmeffekt % (Pfotenoedem; 10 mg/kg): 34%; Hemmeffekt % (Pfotenoedem; 25 mg/kg): 43%
